Molecules are shown by their SMILES.

Consider one compound from paper PMC2796434 (Bioorganic & medicinal chemistry, 2008).

This test has as its target T1, GV sPLA2 (Homo sapiens, UniProt P39877).
T1 sequence (P39877 21-138): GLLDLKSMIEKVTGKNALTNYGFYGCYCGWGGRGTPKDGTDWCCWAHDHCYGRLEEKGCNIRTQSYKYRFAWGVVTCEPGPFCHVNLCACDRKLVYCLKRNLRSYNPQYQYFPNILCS
Nature of the test: mixed-micelle radiolabelled phospholipid. It is filed as biochemical.

Turning to `CCCC[C@H](CCC(=O)O)NC(=O)CCCCCCc1ccccc1` [compound 42, (R)-4-(7-Phenylheptanamido)octanoic acid], the “GV sPLA2” value is 0.003 ± 0.0004 mole fraction (XI(50)).
